Results taken from patent US10583109B2, “Use of silver(I) complexes as anticancer agents” (University of Johannesburg, priority 2012, dated 2020).

Key:
[1] = system: SNO-oesophageal cancer cells; assay: Morphological features of SNO-oesophageal cancer cells by inverse light microscopy; type: cell-based; settings: 10 μM, 24 hours of treatment
Description: Morphological studies were done by means of an Axiovert 25 inverted microscope (Carl Zeiss, Göttingen, Germany) with Axio Vision 3.1 software (Carl Zeiss, Göttingen, Germany) using an magnification of 100×.
After 24 hours of treatment with complexes (1)-(5) including their ligands the cells were examined under said Axiovert 25 inverted light microscope. This was done to determine how the complexes of the present invention influence morphology which was compared to 100 μM Cisplatin (apoptotic control) and 15% H2O2 (necrotic control).
Light microscope images indicating the morphology of the differentially treated SNO-oesophageal cancer cells is shown in FIG. 8. An untreated control (a) including 100 μM Cisplatin (b), an apoptotic control and 15% H2O2 (c), and a necrotic control was included. Cells were treated with 10 μM silver(I) thiocyanate phosphine complexes (1)-(5) as well as their separate ligands (Ligand-1 to Ligand-5, respectively) (FIGS. 8d to 8m). Black arrows represent signs of apoptosis, while the white arrows represent signs of necrosis.
An Axiovert 25 inverted microscope was used to examine if these complexes affect the morphological features of the malignant cells in any other way. This was done at a magnification of 100× with the use of Axio Version 3.1 software (Carl Zeiss, Gottingen, Germany).
Morphological studies where done after 24 hours of treatment to determine how these compounds influence/change specific features of the malignant SNO-oesophageal cancer cells, compared to the untreated (UC) and 1% DMSO vehicle control. The treated cancer cells including their controls were examined under an Axiovert 25 inverted light microscope (Carl Zeiss, Göttingen, Germany) with Axio Vision 3.1 software (Carl Zeiss, Göttingen, Germany) using a 100× magnification. In FIG. 19, the morphology of the different controls including Ligand-10 and complexes (10)-(12) are represented. To predict the targeting mechanisms of these compounds, the treated cells were compared to 100 μM Cisplatin (apoptotic control) and 25% H2O2 (necrotic control).

[2] = system: SNO-oesophageal cancer cells; type: cell-based
Description: The SNO-oesophageal cancer cells were cultured in Dulbecco's modified Eagles medium (DMEM) containing 10% Foetal bovine serum (FBS), 0.8% Penicillin/Streptomycin/Fungizone and 0.2% Gentamycin. The SNO-oesophageal cancer cells were subcultured every 48 hours and incubated at 37° C. under a 5% CO2 humidified atmosphere. After 48 hours the cells were trypsinized and plated (6×10^5 cells) in 3.5 cm culture dishes and left to cultivate for 24 hours.
MCF-7 breast cancer cells, in terms of a first study, and SNO-oesophageal cancer cells, in terms of a second study, were treated with 10 μM silverthiocyanide complexes (1)-(5), as well as their ligands (Ligand-1 to Ligand-5) over a 24 hour incubation period. These complexes were dissolved in 0.1% Dimethyl sulfoxide (DMSO). The DMSO alone (vehicle control) decreased the viability with approximately 2.2%, signifying its minimal influence in cancer cell growth. For comparative purposes, 100 μM Cisplatin (CDDP) and 25% H2O2 was included which respectively serves as the apoptotic and necrotic controls. Cisplatin was prepared in 0.9% NaCl, whereas H2O2 was prepared in the supplemented DMEM media right before treatment. An untreated negative control (UT) was exposed to similar conditions as the treated cells and monitored during the experimental study.
An AlamarBlue® Viability® (Serotec, UK) assay was performed after a 24 hour treatment with complexes (1)-(5) and their ligands (Ligand-1 to Ligand-5, respectively) to evaluate the cellular effect the instant complexes (and their ligands) may have on the cancer cells. AlamarBlue® dye (10%) was incubated with trypsinized cells over a 2 hour period before the fluorescence was measured with a Synergy HT Multi-Detection Microplate reader (BioTek, Winooski, Vt.) at wavelengths of 530 nm and (excitation) and 590 nm (emission). This fluorescent based assay in particular involves the metabolic oxidation-reduction reaction of resazurin to a reduced resorufin product that is directly proportional to the amount of viable cells.
The percentage cellular viability of differentially treated SNO-oesophageal cells was determined using an AlamarBlue® assay, as depicted in FIG. 7. Different controls (grey) were included: untreated, 0.1% DMSO solvent and apoptotic control (100 μM Cisplatin) as well as the corresponding ligands (10 μM) of complexes (1)-(5). Cells were treated with silver(I) thiocyanate phosphine complexes (1)-(5) at a concentration of 10 μM. The percentages were calculated with respect to the control and error bars were constructed on the basis of Standard Error of the Mean (SEM) where n=9 except for the ligand of compound 4 (n=8). The P-values (*P<0.001 and **P<0.0001) were determined with the Student's T-test to evaluate the significant difference.
The cells were thereafter treated with complexes (6)-(9) at a concentration of 10 μM prepared in 0.1% DMSO. Treatment with either 25% H2O2 or 100 μM CDDP served as controls for necrosis and apoptosis respectively. The CDDP was prepared in 0.9% NaCl while the H2O2 was diluted with supplemented DMEM prior to treatment.
A suspension (100 μl) of the differentially treated cells was added in triplicate to a microtiter plate. In the dark, AlamarBlue® dye (10 μl) was added to each well containing a sample, followed by a 2 hour incubation in a 5% CO2 incubator at 37° C. The fluorescence was read on a Synergy HT Multi-Detection Microplate reader at a wavelength of 530 nm and (excitation) and 590 nm (emission). In terms of this study, the apoptotic control CDDP (100 μM) was included. Error bars represent the standard error of the mean (SEM) where n=9. The Student's T-test was used to determine the significant difference of the treatments with respect to DMSO (P*<0.05 and P**<0.001). The silver(I) nitrate phosphine complexes under evaluation decreased the cancer cell viability to a large extent compared to DMSO except complex (9).
SNO-oesophageal cancer cells were a gift from the University of Pretoria, RSA. […]

| Molecule | necrotic cell death (morphology) [1] | cancer cell viability / toxicity ([2]; 10 μM in 0.1% DMSO, 24 hours, compared to vehicle control) | cancer cell death induced ([2]; 10 μM, 24 hours) [%] | percentage cellular viability / toxicity ([2]; 10 μM, 24 hour treatment, compared to the control) |
| --- | --- | --- | --- | --- |
| C1#[N+][Ag]([P+](c2ccccc2)(c2ccccc2)c2ccccc2)([P+](c2ccccc2)(c2ccccc2)c2ccccc2)[S]C#[N+][Ag]([P+](c2ccccc2)(c2ccccc2)c2ccccc2)([P+](c2ccccc2)(c2ccccc2)c2ccccc2)[S]1 [complex (1), [AgSCN(PPh3)2]2] | Necrotic cell death was also observed | – | – | – |
| c1ccc([P+](c2ccccc2)(c2ccccc2)[Ag+]([P+](c2ccccc2)(c2ccccc2)c2ccccc2)([P+](c2ccccc2)(c2ccccc2)c2ccccc2)[P+](c2ccccc2)(c2ccccc2)c2ccccc2)cc1 [complex (9), AgNO3(PPh3)4] | – | low cytotoxicity | ~31.25 | – |
| [AgSCN{P(4-FC6H4)3}2]2 [complex (3)] | Necrotic cell death was also observed | – | – | highly toxic |
